Data reported in patent US8445444B2, “Compositions and methods for diagnosing, treating, and preventing prostate conditions” (Phigenix, Inc., priority 2007, dated 2013).
Entries after “also recorded” stand apart in the source; their conditions may differ.

What was measured:
Format in all cases: cell-based, human
[1] = system: PC3; assay: Pan-caspase detection (FAM-VAD-FMK, confocal); conditions: PC3, 24 h DEFB1 induction
Procedure: Detection of caspase activity in the prostate cancer cell lines was performed using APO LOGIX™ Carboxyfluorescin Caspase detection kit (Cell Technology, Mountain View, Calif.). Active caspases were detected through the use of a FAM-VAD-FMK inhibitor that irreversibly binds to active caspases. Briefly, DU 145 and PC3 cells (1.5-3×10^5) containing the DEFB1 expression system were plated in 35 mm glass bottom microwell dishes (Matek, Ashland, Mass.) and treated for 24 hours with media only or with media containing PonA as previously described. Next, 10 μl of a 30× working dilution of carboxyfluorescein labeled peptide fluoromethyl ketone (FAM-VAD-FMK) was added to 300 μl of media and added to each 35 mm dish. Cells were then incubated for 1 hour at 37° C. under 5% CO2. […] The fluorescent signal was analyzed using a confocal microscope (Zeiss LSM 5 Pascal) and a 63×DIC oil lens with a Vario 2 RGB Laser Scanning Module.
Pan-Caspase Detection: Detection of caspase activity in the prostate cancer cell lines was performed using APO LOGIX™ Carboxyfluorescin Caspase detection kit (Cell Technology, Mountain View, Calif.). Active caspases were detected through the use of a FAM-VAD-FMK inhibitor that irreversibly binds to active caspases. […] The fluorescent signal was analyzed using a confocal microscope (Zeiss LSM 5 Pascal) and a 63×DIC oil lens with a Vario 2 RGB Laser Scanning Module. […]

[2] = system: PC3; assay: Acridine orange/ethidium bromide membrane integrity
Procedure: (§1) Analysis of Membrane Permeability: Acridine orange (AO)/ethidium bromide (EtBr) dual staining was performed to identify changes in cell membrane integrity, as well as apoptotic cells by staining the condensed chromatin. AO stains viable cells as well as early apoptotic cells, whereas EtBr stains late stage apoptotic cells that have lost […]. Briefly, cells were seeded into 2 chamber culture slides (BD Falcon, USA). Cells transfected with empty pIND plasmid/pvgRXR or pIND DEFB1/pvgRXR were induced for 24 or 48 h with media containing 10 μM Ponasterone A. Control cells were provided fresh media at 24 and 48 h. In order to determine the effect of PAX2 inhibition on membrane integrity, separate culture slides containing DU145, PC3 and LNCaP were treated with PAX2 siRNA and incubated for 4 days. Following this, cells were washed once with PBS and stained with 2 ml of a mixture (1:1) of AO (Sigma, USA) and EtBr (Promega, USA) (5 ug/ml) solution for 5 min. Following staining, the cells were again washed with PBS. Fluorescence was viewed by a Zeiss LSM 5 Pascal Vario 2 Laser Scanning Confocal Microscope (Carl Zeiss Jena, Germany). The excitation color wheel contain BS505-530 (green) and LP560 (red) filter blocks which allowed for the separation of emitted green light from AO into the green channel and red light from EtBr into the red channel. The laser power output and gain control settings within each individual experiment were identical between control and DEFB1 induced cells. The excitation was provided by a Kr/Ar mixed gas laser at wavelengths of 543 nm for AO and 488 nm for EtBr. Slides were analyzed under 40× magnification and digital images were stored as uncompressed TIFF files and exported into Photoshop CS software (Adobe Systems, San Jose, Calif.) for image processing and hard copy presentation.
(§2) Analysis of membrane integrity: Acridine orange (AO)/ethidium bromide (EtBr) dual staining was performed to identify changes in cell membrane integrity, as well as apoptotic cells by staining the condensed chromatin. AO stains viable cells and early apoptotic cells, whereas EtBr stains late stage apoptotic cells that have compromised membranes. Briefly, PC3, DU145 and LNCaP cells were seeded into 2-chamber culture slides (BD Falcon). Cells transfected with empty plasmid or hBD-1 plasmid were induced for 24 or 48 h with media containing 10 μM Pon A, while control cells received fresh growth media at each time point. After induction, cells were washed once with PBS and stained with 2 ml of a mixture (1:1) of AO (Sigma, St. Louis, Mo.) and EtBr (Promega) (5 μg/ml) solution for 5 min and were again washed with PBS.
(§3) Fluorescence was viewed by a Zeiss LSM 5 Pascal Vario 2 Laser Scanning Confocal Microscope (Carl Zeiss). The excitation color wheel contains BS505-530 (green) and LP560 (red) filter blocks which allowed for the separation of emitted green light from AO into the green channel and red light from EtBr into the red channel. The laser power output and gain control settings within each individual experiment were identical between control and hBD-1 induced cells. The excitation was provided by a Kr/Ar mixed gas laser at wavelengths of 543 nm for AO and 488 nm for EtBr. Slides were analyzed under 40× magnification and digital images were stored as uncompressed TIFF files and exported into Photoshop CS software (Adobe Systems) for image processing and hard copy presentation. […]

[3] = system: LNCaP; assay: as above; conditions: 48 h hBD-1 induction
Procedure: as §1, §2, §3

[4] = system: DU145; assay: as above
Procedure: as §1, §2, §3

DEFB1: human beta defensin-1 expressed from the ecdysone inducible pIND/DEFB1 construct, induced with Ponasterone A (DHYNCVSSGGQCLYSACPIFTKIQGTCYRGKAKCCK; UniProt P60022 33-68, looked up)
caspase activity [1]: revealed caspase activity; also recorded: green staining
membrane integrity (AO/EtBr staining) ([2]; PC3, 24 h DEFB1 (hBD-1) induction): accumulation of EtBr in the cytoplasm
membrane integrity (AO/EtBr staining) ([2]; PC3, 48 h DEFB1 (hBD-1) induction): condensed nuclei and appeared yellow
membrane integrity (AO/EtBr staining) [3]: no observable alterations to membrane integrity
membrane integrity (AO/EtBr staining) ([4]; DU145, 24 h DEFB1 (hBD-1) induction): accumulation of EtBr in the cytoplasm
membrane integrity (AO/EtBr staining) ([4]; DU145, 48 h DEFB1 (hBD-1) induction): condensed nuclei and appeared yellow
